Results reported in BigSolDB 2.1.

In the case of `CC(CCc1ccccc1)NCC(O)c1ccc(O)c(C(N)=O)c1.Cl` (stereo unspecified), the solubility (mole fraction) (in ethanol, 288.15 K) is reported as 0.00124, the solubility (mole fraction) (in ethanol, 293.15 K) is reported as 0.00145 and the solubility (mole fraction) (in ethanol, 298.15 K) is reported as 0.0017. It also gave a solubility (mole fraction) (in ethanol, 303.15 K) of 0.00198, a solubility (mole fraction) (in ethanol, 308.15 K) of 0.00222 and a solubility (mole fraction) (in ethanol, 313.15 K) of 0.00253. The solubility (mole fraction) (in ethanol, 318.15 K) was 0.00288, the solubility (mole fraction) (in ethanol, 323.15 K) was 0.0035 and the solubility (mole fraction) (in ethanol, 328.15 K) was 0.00395. The solubility (mole fraction) (in ethyl acetate, 288.15 K) was 0.000116, the solubility (mole fraction) (in ethyl acetate, 293.15 K) was 0.000163 and the solubility (mole fraction) (in ethyl acetate, 298.15 K) was 0.000237. The solubility (mole fraction) (in ethyl acetate, 303.15 K) was 0.000302, the solubility (mole fraction) (in ethyl acetate, 308.15 K) was 0.000406 and the solubility (mole fraction) (in ethyl acetate, 313.15 K) was 0.000531. The solubility (mole fraction) (in ethyl acetate, 318.15 K) was 0.000689, the solubility (mole fraction) (in ethyl acetate, 323.15 K) was 0.000823 and the solubility (mole fraction) (in ethyl acetate, 328.15 K) was 0.00109. It also gave a solubility (mole fraction) (in isobutanol, 288.15 K) of 0.000136, a solubility (mole fraction) (in isobutanol, 293.15 K) of 0.000184 and a solubility (mole fraction) (in isobutanol, 298.15 K) of 0.000257. It also gave a solubility (mole fraction) (in isobutanol, 303.15 K) of 0.000326, a solubility (mole fraction) (in isobutanol, 308.15 K) of 0.000429 and a solubility (mole fraction) (in isobutanol, 313.15 K) of 0.00056. It also gave a solubility (mole fraction) (in isobutanol, 318.15 K) of 0.000729, a solubility (mole fraction) (in isobutanol, 323.15 K) of 0.000981 and a solubility (mole fraction) (in isobutanol, 328.15 K) of 0.00126. It also gave a solubility (mole fraction) (in isopropanol, 288.15 K) of 0.00011, a solubility (mole fraction) (in isopropanol, 293.15 K) of 0.000164 and a solubility (mole fraction) (in isopropanol, 298.15 K) of 0.000253. It also gave a solubility (mole fraction) (in isopropanol, 303.15 K) of 0.000355, a solubility (mole fraction) (in isopropanol, 308.15 K) of 0.000492 and a solubility (mole fraction) (in isopropanol, 313.15 K) of 0.000675. For the same molecule, the solubility (mole fraction) (in isopropanol, 318.15 K) was 0.000985, the solubility (mole fraction) (in isopropanol, 323.15 K) was 0.0014 and the solubility (mole fraction) (in isopropanol, 328.15 K) was 0.00194. The solubility (mole fraction) (in methanol, 288.15 K) was 0.00883, the solubility (mole fraction) (in methanol, 293.15 K) was 0.0101 and the solubility (mole fraction) (in methanol, 298.15 K) was 0.0114. The solubility (mole fraction) (in methanol, 303.15 K) was 0.013, the solubility (mole fraction) (in methanol, 308.15 K) was 0.0144 and the solubility (mole fraction) (in methanol, 313.15 K) was 0.0162. It also gave a solubility (mole fraction) (in methanol, 318.15 K) of 0.0182, a solubility (mole fraction) (in methanol, 323.15 K) of 0.0204 and a solubility (mole fraction) (in methanol, 328.15 K) of 0.0228. The solubility (mole fraction) (in n-butanol, 288.15 K) was 0.000385, the solubility (mole fraction) (in n-butanol, 293.15 K) was 0.000467 and the solubility (mole fraction) (in n-butanol, 298.15 K) was 0.000565. The solubility (mole fraction) (in n-butanol, 303.15 K) was 0.000675, the solubility (mole fraction) (in n-butanol, 308.15 K) was 0.000808 and the solubility (mole fraction) (in n-butanol, 313.15 K) was 0.000967. For the same molecule, the solubility (mole fraction) (in n-butanol, 318.15 K) was 0.00116, the solubility (mole fraction) (in n-butanol, 323.15 K) was 0.00136 and the solubility (mole fraction) (in n-butanol, 328.15 K) was 0.00163. For the same molecule, the solubility (mole fraction) (in n-propanol, 288.15 K) was 0.000478, the solubility (mole fraction) (in n-propanol, 293.15 K) was 0.00058 and the solubility (mole fraction) (in n-propanol, 298.15 K) was 0.00071. It also gave a solubility (mole fraction) (in n-propanol, 303.15 K) of 0.000841, a solubility (mole fraction) (in n-propanol, 308.15 K) of 0.001 and a solubility (mole fraction) (in n-propanol, 313.15 K) of 0.00121. For the same molecule, the solubility (mole fraction) (in n-propanol, 318.15 K) was 0.00144, the solubility (mole fraction) (in n-propanol, 323.15 K) was 0.00173 and the solubility (mole fraction) (in n-propanol, 328.15 K) was 0.00194. The solubility (mole fraction) (in sec-butanol, 288.15 K) was 0.000167, the solubility (mole fraction) (in sec-butanol, 293.15 K) was 0.000211 and the solubility (mole fraction) (in sec-butanol, 298.15 K) was 0.000278. The solubility (mole fraction) (in sec-butanol, 303.15 K) was 0.000336, the solubility (mole fraction) (in sec-butanol, 308.15 K) was 0.000411 and the solubility (mole fraction) (in sec-butanol, 313.15 K) was 0.000515. It also gave a solubility (mole fraction) (in sec-butanol, 318.15 K) of 0.000643, a solubility (mole fraction) (in sec-butanol, 323.15 K) of 0.000804 and a solubility (mole fraction) (in sec-butanol, 328.15 K) of 0.000983. The solubility (mole fraction) (in water, 288.15 K) was 0.000711, the solubility (mole fraction) (in water, 293.15 K) was 0.000898 and the solubility (mole fraction) (in water, 298.15 K) was 0.00118. The solubility (mole fraction) (in water, 303.15 K) was 0.00145, the solubility (mole fraction) (in water, 308.15 K) was 0.00172 and the solubility (mole fraction) (in water, 313.15 K) was 0.00212. The solubility (mole fraction) (in water, 318.15 K) was 0.00266, the solubility (mole fraction) (in water, 323.15 K) was 0.00337 and the solubility (mole fraction) (in water, 328.15 K) was 0.00409.
